{"source": "ChEMBL document CHEMBL1649488", "about": "“In vitro activities of echinocandins against Candida krusei determined by three methods: MIC and minimal fungicidal concentration measurements and time-kill studies” (2009)", "assay_type_in_all_cases": "functional", "key": {"Pichia kudriavzevii [1]": {"test_system": "Pichia kudriavzevii", "test": "Antifungal activity against Candida krusei ATCC 6258 bloodstream forms assessed as minimum concentration producing >= 100% growth reduction after 48 hrs by M27-A3 microdilution method", "conditions": "ATCC 6258, 48 h"}, "Pichia kudriavzevii [2]": {"test_system": "Pichia kudriavzevii", "test": "Fungicidal activity against Candida krusei CK6 bloodstream forms after 24 hrs by time-kill analysis", "conditions": "CK6, 24 h"}, "Pichia kudriavzevii [3]": {"test_system": "Pichia kudriavzevii", "test": "Antifungal activity against Candida krusei ATCC 6258 bloodstream forms assessed as time to achieve 90% fungal growth reduction at 0.25 mg/L by time-kill analysis"}, "Pichia kudriavzevii [4]": {"test_system": "Pichia kudriavzevii", "test": "Fungicidal activity against Candida krusei CK1 bloodstream forms after 24 hrs by time-kill analysis", "conditions": "CK1, 24 h"}, "Pichia kudriavzevii [5]": {"test_system": "Pichia kudriavzevii", "test": "Antifungal activity against Candida krusei ATCC 6258 bloodstream forms assessed as time to achieve 99.9% fungal growth reduction at 0.25 mg/L by time-kill analysis"}, "Pichia kudriavzevii [6]": {"test_system": "Pichia kudriavzevii", "test": "Antifungal activity against Candida krusei ATCC 6258 bloodstream forms assessed as time to achieve 50% fungal growth reduction at 1 mg/L by time-kill analysis"}, "Pichia kudriavzevii [7]": {"test_system": "Pichia kudriavzevii", "test": "Antifungal activity against Candida krusei CK6 bloodstream forms after 24 hrs by time-kill analysis", "conditions": "CK6, 24 h"}, "Pichia kudriavzevii [8]": {"test_system": "Pichia kudriavzevii", "test": "Antifungal activity against Candida krusei CY118 bloodstream forms after 24 hrs by time-kill analysis", "conditions": "CY118, 24 h"}, "Pichia kudriavzevii [9]": {"test_system": "Pichia kudriavzevii", "test": "Fungicidal activity against Candida krusei ATCC 6258 bloodstream forms after 24 hrs by time-kill analysis", "conditions": "ATCC 6258, 24 h"}, "Pichia kudriavzevii [10]": {"test_system": "Pichia kudriavzevii", "test": "Antifungal activity against Candida krusei ATCC 6258 bloodstream forms assessed as time to achieve 99% fungal growth reduction at 0.25 mg/L by time-kill analysis"}, "Pichia kudriavzevii [11]": {"test_system": "Pichia kudriavzevii", "test": "Antifungal activity against Candida krusei ATCC 6258 bloodstream forms assessed as time to achieve 99.9% fungal growth reduction at 4 mg/L by time-kill analysis"}, "Pichia kudriavzevii [12]": {"test_system": "Pichia kudriavzevii", "test": "Antifungal activity against Candida krusei ATCC 6258 bloodstream forms assessed as time to achieve 99% fungal growth reduction at 4 mg/L by time-kill analysis"}, "Pichia kudriavzevii [13]": {"test_system": "Pichia kudriavzevii", "test": "Antifungal activity against Candida krusei CK1 bloodstream forms after 24 hrs by time-kill analysis", "conditions": "CK1, 24 h"}, "Pichia kudriavzevii [14]": {"test_system": "Pichia kudriavzevii", "test": "Antifungal activity against Candida krusei ATCC 6258 bloodstream forms assessed as time to achieve 99% fungal growth reduction at 16 mg/L by time-kill analysis"}, "Pichia kudriavzevii [15]": {"test_system": "Pichia kudriavzevii", "test": "Antifungal activity against Candida krusei ATCC 6258 bloodstream forms assessed as time to achieve 90% fungal growth reduction at 4 mg/L by time-kill analysis"}, "Pichia kudriavzevii [16]": {"test_system": "Pichia kudriavzevii", "test": "Fungicidal activity against Candida krusei CK2 bloodstream forms after 24 hrs by time-kill analysis", "conditions": "CK2, 24 h"}, "Pichia kudriavzevii [17]": {"test_system": "Pichia kudriavzevii", "test": "Fungicidal activity against Candida krusei CK18 bloodstream forms after 24 hrs by time-kill analysis", "conditions": "CK18, 24 h"}, "Pichia kudriavzevii [18]": {"test_system": "Pichia kudriavzevii", "test": "Fungicidal activity against Candida krusei EU220 bloodstream forms after 24 hrs by time-kill analysis", "conditions": "EU220, 24 h"}, "Pichia kudriavzevii [19]": {"test_system": "Pichia kudriavzevii", "test": "Antifungal activity against Candida krusei ATCC 6258 bloodstream forms assessed as time to achieve 99% fungal growth reduction at 1 mg/L by time-kill analysis"}, "Pichia kudriavzevii [20]": {"test_system": "Pichia kudriavzevii", "test": "Antifungal activity against Candida krusei CK18 bloodstream forms after 24 hrs by time-kill analysis", "conditions": "CK18, 24 h"}, "Pichia kudriavzevii [21]": {"test_system": "Pichia kudriavzevii", "test": "Fungicidal activity against Candida krusei ATCC 6258 bloodstream forms after 48 hrs by M27-A3 microdilution method"}, "Pichia kudriavzevii [22]": {"test_system": "Pichia kudriavzevii", "test": "Antifungal activity against Candida krusei ATCC 6258 bloodstream forms assessed as time to achieve 50% fungal growth reduction at 0.25 mg/L by time-kill analysis"}, "Pichia kudriavzevii [23]": {"test_system": "Pichia kudriavzevii", "test": "Fungicidal activity against Candida krusei EU123 bloodstream forms after 24 hrs by time-kill analysis", "conditions": "EU123, 24 h"}, "Pichia kudriavzevii [24]": {"test_system": "Pichia kudriavzevii", "test": "Antifungal activity against Candida krusei ATCC 6258 bloodstream forms after 24 hrs by time-kill analysis", "conditions": "ATCC 6258, 24 h"}, "Pichia kudriavzevii [25]": {"test_system": "Pichia kudriavzevii", "test": "Fungicidal activity against Candida krusei CY118 bloodstream forms after 24 hrs by time-kill analysis", "conditions": "CY118, 24 h"}, "Pichia kudriavzevii [26]": {"test_system": "Pichia kudriavzevii", "test": "Antifungal activity against Candida krusei ATCC 6258 bloodstream forms assessed as minimum concentration producing >= 50% growth reduction after 24 hrs by M27-A3 microdilution method", "conditions": "ATCC 6258, 24 h"}, "Pichia kudriavzevii [27]": {"test_system": "Pichia kudriavzevii", "test": "Antifungal activity against Candida krusei ATCC 6258 bloodstream forms assessed as time to achieve 99.9% fungal growth reduction at 1 mg/L by time-kill analysis"}, "Pichia kudriavzevii [28]": {"test_system": "Pichia kudriavzevii", "test": "Antifungal activity against Candida krusei ATCC 6258 bloodstream forms assessed as time to achieve 50% fungal growth reduction at 16 mg/L by time-kill analysis"}, "Pichia kudriavzevii [29]": {"test_system": "Pichia kudriavzevii", "test": "Antifungal activity against Candida krusei ATCC 6258 bloodstream forms assessed as minimum concentration producing >= 100% growth reduction after 24 hrs by M27-A3 microdilution method", "conditions": "ATCC 6258, 24 h"}, "Pichia kudriavzevii [30]": {"test_system": "Pichia kudriavzevii", "test": "Antifungal activity against Candida krusei EU220 bloodstream forms after 24 hrs by time-kill analysis", "conditions": "EU220, 24 h"}, "Pichia kudriavzevii [31]": {"test_system": "Pichia kudriavzevii", "test": "Antifungal activity against Candida krusei CK2 bloodstream forms after 24 hrs by time-kill analysis", "conditions": "CK2, 24 h"}, "Pichia kudriavzevii [32]": {"test_system": "Pichia kudriavzevii", "test": "Antifungal activity against Candida krusei ATCC 6258 bloodstream forms assessed as time to achieve 90% fungal growth reduction at 16 mg/L by time-kill analysis"}, "Pichia kudriavzevii [33]": {"test_system": "Pichia kudriavzevii", "test": "Antifungal activity against Candida krusei EU123 bloodstream forms after 24 hrs by time-kill analysis", "conditions": "EU123, 24 h"}, "Pichia kudriavzevii [34]": {"test_system": "Pichia kudriavzevii", "test": "Antifungal activity against Candida krusei ATCC 6258 bloodstream forms assessed as time to achieve 50% fungal growth reduction at 4 mg/L by time-kill analysis"}, "Pichia kudriavzevii [35]": {"test_system": "Pichia kudriavzevii", "test": "Antifungal activity against Candida krusei ATCC 6258 bloodstream forms assessed as minimum concentration producing >= 50% growth reduction after 48 hrs by M27-A3 microdilution method", "conditions": "ATCC 6258, 48 h"}, "Pichia kudriavzevii [36]": {"test_system": "Pichia kudriavzevii", "test": "Antifungal activity against Candida krusei ATCC 6258 bloodstream forms assessed as time to achieve 99.9% fungal growth reduction at 16 mg/L by time-kill analysis"}, "Pichia kudriavzevii [37]": {"test_system": "Pichia kudriavzevii", "test": "Antifungal activity against Candida krusei ATCC 6258 bloodstream forms assessed as time to achieve 90% fungal growth reduction at 1 mg/L by time-kill analysis"}}, "note": "Starred links: 1 amine or outer side, 2 acyl side, 3 side chain; linkers in the order of their positions; H or OH if unused. Positions of bridges follow the written chain, without caps; N, C: chain ends. Non-standard residues stand in square brackets, D forms with d. Residues, ends and D or L forms follow the SMILES beside them. *: point of attachment. hTyr(3S-OH,4S-OH,3'-OSO3H) = N[C@H](C(=O)O)[C@H](O)[C@@H](O)c1ccc(O)c(OS(=O)(=O)O)c1; Orn(4R-OH,5R-OH) = O=C([C@H](C[C@@H](O)[C@@H](O)N[*:3])N[*:1])[*:2]; Pro(3S-OH,4S-Me) = C[C@H]1CN[C@H](C(=O)O)[C@H]1O; X1 = CCCCCOc1ccc(-c2cc(-c3ccc(C(=O)*)cc3)no2)cc1; Gln(3R-OH) = NC(=O)C[C@@H](O)[C@H](N)C(=O)O; Hyp = O=C(O)[C@@H]1C[C@@H](O)CN1", "data": [{"compound": "CCCCCOc1ccc(-c2cc(-c3ccc(C(=O)N[C@H]4C[C@@H](O)[C@@H](O)NC(=O)[C@@H]5[C@@H](O)[C@@H](C)CN5C(=O)[C@H]([C@H](O)CC(N)=O)NC(=O)[C@H]([C@H](O)[C@@H](O)c5ccc(O)c(OS(=O)(=O)O)c5)NC(=O)[C@@H]5C[C@@H](O)CN5C(=O)[C@H]([C@@H](C)O)NC4=O)cc3)no2)cc1", "note": "[MICAFUNGIN] (X1-[Orn(4R-OH,5R-OH)]T[Hyp][hTyr(3S-OH,4S-OH,3'-OSO3H)][Gln(3R-OH)][Pro(3S-OH,4S-Me)]; lactam 1-C)", "values": [{"measurement": "MIC50", "setting": "Pichia kudriavzevii [1]", "value": 0.5, "unit": "µg/mL"}, {"measurement": "MIC90", "setting": "Pichia kudriavzevii [1]", "value": 0.5, "unit": "µg/mL"}, {"measurement": "MFC", "setting": "Pichia kudriavzevii [2]", "value": 0.5, "unit": "µg/mL"}, {"measurement": "Time", "setting": "Pichia kudriavzevii [3]", "value": 10.3, "unit": "h"}, {"measurement": "MFC", "setting": "Pichia kudriavzevii [4]", "value": 0.5, "unit": "µg/mL"}, {"measurement": "Time", "setting": "Pichia kudriavzevii [5]", "value": 31, "unit": "h"}, {"measurement": "Time", "setting": "Pichia kudriavzevii [6]", "value": 3.1, "unit": "h"}, {"measurement": "MIC", "setting": "Pichia kudriavzevii [7]", "value": 0.5, "unit": "µg/mL"}, {"measurement": "MIC", "setting": "Pichia kudriavzevii [8]", "value": 1, "unit": "µg/mL"}, {"measurement": "MFC", "setting": "Pichia kudriavzevii [9]", "value": 0.25, "unit": "µg/mL"}, {"measurement": "Time", "setting": "Pichia kudriavzevii [10]", "value": 20.6, "unit": "h"}, {"measurement": "Time", "setting": "Pichia kudriavzevii [11]", "value": 31.88, "unit": "h"}, {"measurement": "Time", "setting": "Pichia kudriavzevii [12]", "value": 21.25, "unit": "h"}, {"measurement": "MIC", "setting": "Pichia kudriavzevii [13]", "value": 0.25, "unit": "µg/mL"}, {"measurement": "Time", "setting": "Pichia kudriavzevii [14]", "value": 17.28, "unit": "h"}, {"measurement": "Time", "setting": "Pichia kudriavzevii [15]", "value": 10.63, "unit": "h"}, {"measurement": "MFC", "setting": "Pichia kudriavzevii [16]", "value": 0.5, "unit": "µg/mL"}, {"measurement": "MFC", "setting": "Pichia kudriavzevii [17]", "value": 0.5, "unit": "µg/mL"}, {"measurement": "MFC", "setting": "Pichia kudriavzevii [18]", "value": 0.25, "unit": "µg/mL"}, {"measurement": "Time", "setting": "Pichia kudriavzevii [19]", "value": 20.5, "unit": "h"}, {"measurement": "MIC", "setting": "Pichia kudriavzevii [20]", "value": 0.25, "unit": "µg/mL"}, {"measurement": "MFC50", "setting": "Pichia kudriavzevii [21]", "value": 0.5, "unit": "µg/mL"}, {"measurement": "MFC90", "setting": "Pichia kudriavzevii [21]", "value": 0.5, "unit": "µg/mL"}, {"measurement": "MFC", "setting": "Pichia kudriavzevii [21]; Pichia kudriavzevii, ATCC 6258, 48 h", "value": 0.25, "unit": "µg/mL"}, {"measurement": "Time", "setting": "Pichia kudriavzevii [22]", "value": 3.1, "unit": "h"}, {"measurement": "MFC", "setting": "Pichia kudriavzevii [23]", "value": 0.5, "unit": "µg/mL"}, {"measurement": "MIC", "setting": "Pichia kudriavzevii [24]", "value": 0.12, "unit": "µg/mL"}, {"measurement": "MFC", "setting": "Pichia kudriavzevii [25]", "value": 16, "unit": "µg/mL"}, {"measurement": "MIC50", "setting": "Pichia kudriavzevii [26]", "value": 0.25, "unit": "µg/mL"}, {"measurement": "MIC90", "setting": "Pichia kudriavzevii [26]", "value": 0.5, "unit": "µg/mL"}, {"measurement": "Time", "setting": "Pichia kudriavzevii [27]", "value": 30.7, "unit": "h"}, {"measurement": "Time", "setting": "Pichia kudriavzevii [28]", "value": 2.6, "unit": "h"}, {"measurement": "MIC50", "setting": "Pichia kudriavzevii [29]", "value": 0.5, "unit": "µg/mL"}, {"measurement": "MIC90", "setting": "Pichia kudriavzevii [29]", "value": 0.5, "unit": "µg/mL"}, {"measurement": "MIC", "setting": "Pichia kudriavzevii [30]", "value": 0.25, "unit": "µg/mL"}, {"measurement": "MIC", "setting": "Pichia kudriavzevii [31]", "value": 0.5, "unit": "µg/mL"}, {"measurement": "Time", "setting": "Pichia kudriavzevii [32]", "value": 8.64, "unit": "h"}, {"measurement": "MIC", "setting": "Pichia kudriavzevii [33]", "value": 0.12, "unit": "µg/mL"}, {"measurement": "Time", "setting": "Pichia kudriavzevii [34]", "value": 3.2, "unit": "h"}, {"measurement": "MIC50", "setting": "Pichia kudriavzevii [35]", "value": 0.5, "unit": "µg/mL"}, {"measurement": "MIC90", "setting": "Pichia kudriavzevii [35]", "value": 0.5, "unit": "µg/mL"}, {"measurement": "Time", "setting": "Pichia kudriavzevii [36]", "value": 25.91, "unit": "h"}, {"measurement": "Time", "setting": "Pichia kudriavzevii [37]", "value": 10.2, "unit": "h"}]}]}
